The record followed here is patent US8114843B2, “Photoreactive regulator of protein function and methods of use thereof” (The Regents of the University of California, priority 2005, dated 2012).

Experiment in all cases: PAL photoswitching, whole-cell patch clamp in HEK cells
Common to all, as to format: cell-based

For one test, the target named is T1, Kv1.2 (Homo sapiens, UniProt P16389).
T1 construct: expressed in transfected cells; host or cells: HEK cells
The method, then: (§1) Cell culture and transfection. HEK293 cells were grown in DMEM containing 5% fetal bovine serum, at 37° C., 7% CO2. For electrophysiology, cells were plated at 12×10^5 cells/cm^2 on poly-L-lysine coated coverslips and transfected using the calcium phosphate method. Recordings were performed 24-36 hours after transfection.
(§2) PAL attachment. HEK293 and hippocampal cells were rinsed in extracellular solution containing in mM: 138 NaCl, 1.5 KCl, 1.2 MgCl2, 2.5 CaCl2, 5 HEPES, 10 glucose and incubated at 37° C. in the dark with 200-250 μM PAL for 15 minutes. For slices, AAQ was diluted to 200 μM in aCSF and treatment was performed in the dark at room temperature for 10 minutes.
(§3) Electrophysiological recording. Recordings from HEK293 and hippocampal neurons were made in the whole-cell patch clamp configuration using a PC-501A amplifier (Warner Instruments). Pulse protocols and measurements were carried out with pCLAMP and a Digidata 1322 interface (Axon Instruments). For voltage-clamp experiment, cells were held at −70 mV. Data was recorded at 20 kHz and filtered at 2 kHz. Recording pipettes with 2.5-4 MΩ resistance were filled with intracellular solution containing in mM: 10 NaCl, 135 K-gluconate, 10 HEPES, 2 MgCl2, 2 MgATP, 1 EGTA, pH 7.4.
(§4) Illumination was provided using a xenon lamp (Sutter Instruments) with narrow band pass filters (380 BP10 for UV and 500 BP5 for visible light respectively). Excitation filters were changed using a lambda 10-2 filter changer (Sutter Instruments) controlled via pCLAMP software.
(§5) Percent photoswitching was defined as the difference between current in UV and visible light divided by current in UV. All data shown in bar graphs are averages±standard error of the mean.

The next test addresses T2, Kv1.4 (Homo sapiens, UniProt P22459).
T2 construct: expressed in transfected cells; host or cells: HEK cells
The conditions noted are these: n=6. The method, then: as §1, §2, §3, §4, §5

A further test addresses T3, Kv2.1 (Homo sapiens, UniProt Q14721).
T3 construct: expressed in transfected cells; host or cells: HEK cells
T3 sequence (Q14721 1-858): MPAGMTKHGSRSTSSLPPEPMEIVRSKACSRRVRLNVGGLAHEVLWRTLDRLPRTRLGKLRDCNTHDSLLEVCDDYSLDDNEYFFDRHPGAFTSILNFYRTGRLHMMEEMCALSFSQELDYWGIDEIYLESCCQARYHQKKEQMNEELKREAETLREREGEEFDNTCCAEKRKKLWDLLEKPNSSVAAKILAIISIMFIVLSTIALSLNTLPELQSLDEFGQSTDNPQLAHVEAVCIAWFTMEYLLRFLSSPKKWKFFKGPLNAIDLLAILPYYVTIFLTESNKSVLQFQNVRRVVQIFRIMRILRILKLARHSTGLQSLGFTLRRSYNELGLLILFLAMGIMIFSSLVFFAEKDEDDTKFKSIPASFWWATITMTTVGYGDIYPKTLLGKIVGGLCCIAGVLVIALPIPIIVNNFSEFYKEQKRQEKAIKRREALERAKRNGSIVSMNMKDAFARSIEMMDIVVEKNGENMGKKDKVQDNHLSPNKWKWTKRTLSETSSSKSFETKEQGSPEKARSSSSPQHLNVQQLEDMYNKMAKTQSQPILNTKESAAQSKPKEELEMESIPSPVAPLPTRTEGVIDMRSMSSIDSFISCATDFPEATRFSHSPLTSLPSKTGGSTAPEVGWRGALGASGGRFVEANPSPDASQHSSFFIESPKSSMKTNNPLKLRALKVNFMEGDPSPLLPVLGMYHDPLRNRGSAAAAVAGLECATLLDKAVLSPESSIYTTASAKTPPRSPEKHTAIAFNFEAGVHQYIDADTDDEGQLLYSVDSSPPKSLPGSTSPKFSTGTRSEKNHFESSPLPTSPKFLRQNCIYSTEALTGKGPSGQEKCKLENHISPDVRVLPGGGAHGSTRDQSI
As for the experimental part: as §1, §2, §3, §4, §5

In a further test the target is T4, Kv3.1 (Homo sapiens, UniProt P48547).
T4 construct: expressed in transfected cells; host or cells: HEK cells
T4 sequence (P48547 1-511): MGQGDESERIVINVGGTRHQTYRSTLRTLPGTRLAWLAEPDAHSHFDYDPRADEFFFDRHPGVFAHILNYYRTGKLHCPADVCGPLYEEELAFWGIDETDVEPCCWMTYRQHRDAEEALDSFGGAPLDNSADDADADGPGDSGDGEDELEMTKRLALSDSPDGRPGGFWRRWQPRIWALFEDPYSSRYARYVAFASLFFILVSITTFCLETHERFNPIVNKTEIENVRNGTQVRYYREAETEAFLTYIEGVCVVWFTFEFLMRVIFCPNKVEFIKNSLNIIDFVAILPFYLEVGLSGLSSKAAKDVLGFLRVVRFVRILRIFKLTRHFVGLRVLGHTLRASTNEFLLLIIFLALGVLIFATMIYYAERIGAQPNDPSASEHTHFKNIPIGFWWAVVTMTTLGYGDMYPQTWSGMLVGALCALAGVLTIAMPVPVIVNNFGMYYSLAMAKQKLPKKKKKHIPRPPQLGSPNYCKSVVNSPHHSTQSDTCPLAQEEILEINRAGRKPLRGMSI
As for the experimental part: as §1, §2, §3, §4, §5

The target in a further test is T5, Kv3.3 (Homo sapiens, UniProt Q14003).
T5 construct: expressed in transfected cells; host or cells: HEK cells
T5 sequence (Q14003 1-757): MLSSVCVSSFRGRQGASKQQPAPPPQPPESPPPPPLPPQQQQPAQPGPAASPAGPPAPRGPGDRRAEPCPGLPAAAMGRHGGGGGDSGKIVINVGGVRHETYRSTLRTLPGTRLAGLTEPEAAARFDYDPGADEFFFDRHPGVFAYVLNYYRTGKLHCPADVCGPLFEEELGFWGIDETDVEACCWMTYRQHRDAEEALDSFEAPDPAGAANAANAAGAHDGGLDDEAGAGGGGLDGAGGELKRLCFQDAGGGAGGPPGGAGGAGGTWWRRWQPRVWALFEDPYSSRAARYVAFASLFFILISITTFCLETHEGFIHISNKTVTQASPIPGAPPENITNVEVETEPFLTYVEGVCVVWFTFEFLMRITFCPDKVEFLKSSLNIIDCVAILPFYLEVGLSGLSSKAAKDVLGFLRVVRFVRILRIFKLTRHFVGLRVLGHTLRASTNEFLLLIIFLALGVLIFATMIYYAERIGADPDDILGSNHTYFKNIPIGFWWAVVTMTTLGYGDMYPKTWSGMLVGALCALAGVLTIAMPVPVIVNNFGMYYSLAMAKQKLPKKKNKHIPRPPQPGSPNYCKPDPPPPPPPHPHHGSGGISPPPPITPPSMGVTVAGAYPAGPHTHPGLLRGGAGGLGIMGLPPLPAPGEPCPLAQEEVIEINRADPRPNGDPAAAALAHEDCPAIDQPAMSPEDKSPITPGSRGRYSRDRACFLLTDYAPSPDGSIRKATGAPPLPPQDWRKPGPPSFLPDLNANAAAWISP
The method, then:
as §1, §2, §3, §4, §5

T1 sequence (P16389 whole entry): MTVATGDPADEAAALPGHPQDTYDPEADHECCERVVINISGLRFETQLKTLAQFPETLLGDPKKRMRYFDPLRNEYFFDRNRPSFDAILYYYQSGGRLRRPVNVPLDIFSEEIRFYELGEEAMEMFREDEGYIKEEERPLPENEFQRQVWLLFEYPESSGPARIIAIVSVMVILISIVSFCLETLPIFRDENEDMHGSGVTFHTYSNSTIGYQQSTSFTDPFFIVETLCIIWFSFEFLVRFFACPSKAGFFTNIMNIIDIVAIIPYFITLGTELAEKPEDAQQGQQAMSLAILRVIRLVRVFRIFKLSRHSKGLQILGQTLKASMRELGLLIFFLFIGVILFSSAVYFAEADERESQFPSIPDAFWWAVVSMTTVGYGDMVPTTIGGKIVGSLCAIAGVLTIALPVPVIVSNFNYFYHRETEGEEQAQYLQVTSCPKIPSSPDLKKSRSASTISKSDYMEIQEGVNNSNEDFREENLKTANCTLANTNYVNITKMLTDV
T2 sequence (P22459 whole entry): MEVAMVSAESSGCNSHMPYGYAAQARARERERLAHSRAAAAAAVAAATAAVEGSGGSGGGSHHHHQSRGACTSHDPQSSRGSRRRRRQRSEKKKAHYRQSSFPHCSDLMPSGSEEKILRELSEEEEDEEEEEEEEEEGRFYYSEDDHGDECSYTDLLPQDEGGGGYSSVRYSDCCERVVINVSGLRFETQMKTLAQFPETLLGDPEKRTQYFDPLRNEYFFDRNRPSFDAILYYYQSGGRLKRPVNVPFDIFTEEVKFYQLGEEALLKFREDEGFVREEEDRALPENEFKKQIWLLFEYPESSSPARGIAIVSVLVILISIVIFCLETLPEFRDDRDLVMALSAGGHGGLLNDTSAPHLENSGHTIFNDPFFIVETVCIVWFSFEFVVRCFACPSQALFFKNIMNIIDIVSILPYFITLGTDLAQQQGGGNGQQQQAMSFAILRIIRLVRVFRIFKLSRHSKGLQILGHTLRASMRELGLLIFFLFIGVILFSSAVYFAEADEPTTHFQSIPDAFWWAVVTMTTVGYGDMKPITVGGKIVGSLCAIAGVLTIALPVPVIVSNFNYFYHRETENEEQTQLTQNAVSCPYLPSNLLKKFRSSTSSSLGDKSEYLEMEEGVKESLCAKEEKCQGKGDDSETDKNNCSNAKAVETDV

In the case of `C=CC(=O)Nc1ccc(/N=N/c2ccc(NC(=O)C[N+](CC)(CC)CC)cc2)cc1` [AAQ], the “light-sensitivity imparted on channel” value at Kv1.2, on Kv2.1, at Kv3.1 and at Kv3.3 was “imparted light-sensitivity” throughout. In addition, at Kv1.4, the “current turned on and off by light” value was about 80%.
